Data taken from patent US6737383B1, “Herbicidal oxadiazolidines” (priority 1999, dated 2004).

Assays:
wheat = assay: Test B pre/postemergence wheat; format: in vivo, Triticum aestivum; details: Preemergence; for Plant response rating, Wheat: Rate 125 g/ha
Outline: (§1)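 Test chemicals in a non-phytotoxic solvent mixture with surfactant were sprayed preemergence onto planted seeds and postemergence onto plants 2 to 18 cm tall (1- to 4-leaf stage). After twelve to sixteen days in a greenhouse, injury was visually rated against untreated controls from 0 (no effect) to 10 (complete control).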

bedstraw = assay: Test B pre/postemergence bedstraw; format: in vivo, Galium aparine; details: Preemergence; for Plant response rating, Bedstraw: Rate 125 g/ha
Outline: as §1

sugar beet = assay: Test B pre/postemergence sugar beet; format: in vivo, Beta vulgaris; details: Preemergence; for Plant response rating, Sugarbeets: Rate 125 g/ha
Outline: as §1

crabgrass = assay: Test B pre/postemergence crabgrass; format: in vivo, Digitaria sanguinalis; details: Preemergence; for Plant response rating, Crabgrass: Rate 125 g/ha
Outline: as §1

corn = assay: Test B pre/postemergence corn; format: in vivo, Zea mays; details: Preemergence; for Plant response rating, Corn: Rate 125 g/ha
Outline: as §1

rape = assay: Test B pre/postemergence rape; format: in vivo, Brassica napus; details: Preemergence; for Plant response rating, Rape: Rate 125 g/ha
Outline: as §1

purple nutsedge = assay: Test B pre/postemergence purple nutsedge; format: in vivo, Cyperus rotundus; details: Preemergence; for Plant response rating, Nutsedge: Rate 125 g/ha
Outline: as §1

surinam grass = assay: Test B pre/postemergence surinam grass; format: in vivo, Brachiaria decumbens; details: Preemergence; for Plant response rating, B. signalgrass: Rate 125 g/ha
Outline: as §1

pigweed = assay: Test B pre/postemergence pigweed; format: in vivo, Amaranthus retroflexus; details: Preemergence; for Plant response rating, Redroot pigweed: Rate 125 g/ha
Outline: as §1

velvetleaf = assay: Test B pre/postemergence velvetleaf; format: in vivo, Abutilon theophrasti; details: Preemergence; for Plant response rating, Velvetleaf: Rate 125 g/ha
Outline: as §1

morningglory = assay: Test B pre/postemergence morningglory; format: in vivo, Ipomoea hederacea; details: Preemergence; for Plant response rating, Morningglory: Rate 125 g/ha
Outline: as §1

blackgrass = assay: Test B pre/postemergence blackgrass; format: in vivo, Alopecurus myosuroides; details: Preemergence; for Plant response rating, Blackgrass: Rate 125 g/ha
Outline: as §1

wild oat = assay: Test B pre/postemergence wild oat; format: in vivo, Avena fatua; details: Preemergence; for Plant response rating, Wild oats: Rate 125 g/ha
Outline: as §1

soybean = assay: Test B pre/postemergence soybean; format: in vivo, Glycine max; details: Preemergence; for Plant response rating, Soybean: Rate 125 g/ha
Outline: as §1

giant foxtail = assay: Test B pre/postemergence giant foxtail; format: in vivo, Setaria faberii; details: Preemergence; for Plant response rating, Giant foxtail: Rate 125 g/ha
Outline: as §1

cocklebur = assay: Test B pre/postemergence cocklebur; format: in vivo, Xanthium strumarium; details: Preemergence; for Plant response rating, Cocklebur: Rate 125 g/ha
Outline: as §1

[1] = Rate 62 g/ha, scale of 0 to 10 where 0 is no effect and 10 is complete control
[2] = scale of 0 to 10 where 0 is no effect and 10 is complete control
[3] = Rate 250 g/ha, scale 0 (no effect) to 10 (complete control)
[4] = Rate 500 g/ha, scale 0 to 10 (0 no effect, 10 complete control)

Compound: COCC(OC)n1c(=O)on(C(=O)N(c2ccc(Cl)cc2)C(C)C)c1=O (centres unmarked) [Compound 726]
- Wheat plant response rating (wheat; [1]): 0
- Plant response rating, Wheat (wheat; [2]): 0
- Wheat plant response rating (wheat; [3]): 0
- Wheat plant response rating (wheat; [4]): 0
- Bedstraw plant response rating (bedstraw; [1]): 0
- Plant response rating, Bedstraw (bedstraw; [2]): 0
- Bedstraw plant response rating (bedstraw; [3]): 0
- Bedstraw plant response rating (bedstraw; [4]): 0
- Sugarbeets plant response rating (sugar beet; [1]): 0
- Plant response rating, Sugarbeets (sugar beet; [2]): 0
- Sugarbeets plant response rating (sugar beet; [3]): 5
- Sugarbeets plant response rating (sugar beet; [4]): 5
- Crabgrass plant response rating (crabgrass; [1]): 9
- Plant response rating, Crabgrass (crabgrass; [2]): 9
- Crabgrass plant response rating (crabgrass; [3]): 9
- Crabgrass plant response rating (crabgrass; [4]): 10
- Corn plant response rating (corn; [1]): 0
- Plant response rating, Corn (corn; [2]): 0
- Corn plant response rating (corn; [3]): 0
- Corn plant response rating (corn; [4]): 2
- Rape plant response rating (rape; [1]): 0
- Plant response rating, Rape (rape; [2]): 0
- Rape plant response rating (rape; [3]): 0
- Rape plant response rating (rape; [4]): 7
- Nutsedge plant response rating (purple nutsedge; [1]): 0
- Plant response rating, Nutsedge (purple nutsedge; [2]): 0
- Nutsedge plant response rating (purple nutsedge; [3]): 0
- Nutsedge plant response rating (purple nutsedge; [4]): 0
- B. signalgrass plant response rating (surinam grass; [1]): 4
- Plant response rating, B. signalgrass (surinam grass; [2]): 7
- B. signalgrass plant response rating (surinam grass; [3]): 7
- B. signalgrass plant response rating (surinam grass; [4]): 9
- Redroot pigweed plant response rating (pigweed; [1]): 0
- Plant response rating, Redroot pigweed (pigweed; [2]): 4
- Redroot pigweed plant response rating (pigweed; [3]): 7
- Redroot pigweed plant response rating (pigweed; [4]): 8
- Velvetleaf plant response rating (velvetleaf; [1]): 0
- Plant response rating, Velvetleaf (velvetleaf; [2]): 0
- Velvetleaf plant response rating (velvetleaf; [3]): 0
- Velvetleaf plant response rating (velvetleaf; [4]): 0
- Morningglory plant response rating (morningglory; [1]): 0
- Plant response rating, Morningglory (morningglory; [2]): 0
- Morningglory plant response rating (morningglory; [3]): 1
- Morningglory plant response rating (morningglory; [4]): 1
- Blackgrass plant response rating (blackgrass; [1]): 7
- Plant response rating, Blackgrass (blackgrass; [2]): 8
- Blackgrass plant response rating (blackgrass; [3]): 8
- Blackgrass plant response rating (blackgrass; [4]): 9
- Wild oats plant response rating (wild oat; [1]): 1
- Plant response rating, Wild oats (wild oat; [2]): 7
- Wild oats plant response rating (wild oat; [3]): 8
- Wild oats plant response rating (wild oat; [4]): 9
- Soybean plant response rating (soybean; [1]): 0
- Plant response rating, Soybean (soybean; [2]): 0
- Soybean plant response rating (soybean; [3]): 0
- Soybean plant response rating (soybean; [4]): 0
- Giant foxtail plant response rating (giant foxtail; [1]): 9
- Plant response rating, Giant foxtail (giant foxtail; [2]): 9
- Giant foxtail plant response rating (giant foxtail; [3]): 10
- Giant foxtail plant response rating (giant foxtail; [4]): 10
- Cocklebur plant response rating (cocklebur; [1]): 0
- Plant response rating, Cocklebur (cocklebur; [2]): 0
- Cocklebur plant response rating (cocklebur; [3]): 0
- Cocklebur plant response rating (cocklebur; [4]): 0

Compound: CC(C)N(C(=O)n1oc(=O)n(C(C)C(=S)N(C)C)c1=O)c1ccc(F)cc1 (centres unmarked) [Compound 728]
- Wheat plant response rating (wheat; [1]): 0
- Plant response rating, Wheat (wheat; [2]): 0
- Wheat plant response rating (wheat; [3]): 5
- Wheat plant response rating (wheat; [4]): 7
- Bedstraw plant response rating (bedstraw; [1]): 0
- Plant response rating, Bedstraw (bedstraw; [2]): 0
- Bedstraw plant response rating (bedstraw; [3]): 0
- Bedstraw plant response rating (bedstraw; [4]): 2
- Sugarbeets plant response rating (sugar beet; [1]): 0
- Plant response rating, Sugarbeets (sugar beet; [2]): 0
- Sugarbeets plant response rating (sugar beet; [3]): 4
- Sugarbeets plant response rating (sugar beet; [4]): 4
- Crabgrass plant response rating (crabgrass; [1]): 6
- Plant response rating, Crabgrass (crabgrass; [2]): 6
- Crabgrass plant response rating (crabgrass; [4]): 7
- Corn plant response rating (corn; [1]): 0
- Plant response rating, Corn (corn; [2]): 0
- Corn plant response rating (corn; [3]): 0
- Corn plant response rating (corn; [4]): 0
- Rape plant response rating (rape; [1]): 0
- Plant response rating, Rape (rape; [2]): 3
- Rape plant response rating (rape; [3]): 6
- Rape plant response rating (rape; [4]): 8
- Nutsedge plant response rating (purple nutsedge; [1]): 0
- Plant response rating, Nutsedge (purple nutsedge; [2]): 0
- B. signalgrass plant response rating (surinam grass; [1]): 5
- Plant response rating, B. signalgrass (surinam grass; [2]): 8
- B. signalgrass plant response rating (surinam grass; [3]): 8
- B. signalgrass plant response rating (surinam grass; [4]): 9
- Redroot pigweed plant response rating (pigweed; [1]): 0
- Plant response rating, Redroot pigweed (pigweed; [2]): 7
- Redroot pigweed plant response rating (pigweed; [3]): 8
- Redroot pigweed plant response rating (pigweed; [4]): 9
- Velvetleaf plant response rating (velvetleaf; [1]): 0
- Plant response rating, Velvetleaf (velvetleaf; [2]): 0
- Velvetleaf plant response rating (velvetleaf; [3]): 0
- Velvetleaf plant response rating (velvetleaf; [4]): 0
- Morningglory plant response rating (morningglory; [1]): 0
- Plant response rating, Morningglory (morningglory; [2]): 0
- Morningglory plant response rating (morningglory; [3]): 2
- Morningglory plant response rating (morningglory; [4]): 2
- Blackgrass plant response rating (blackgrass; [1]): 0
- Plant response rating, Blackgrass (blackgrass; [2]): 9
- Blackgrass plant response rating (blackgrass; [3]): 9
- Blackgrass plant response rating (blackgrass; [4]): 10
- Wild oats plant response rating (wild oat; [1]): 0
- Plant response rating, Wild oats (wild oat; [2]): 4
- Wild oats plant response rating (wild oat; [3]): 10
- Wild oats plant response rating (wild oat; [4]): 10
- Soybean plant response rating (soybean; [1]): 0
- Plant response rating, Soybean (soybean; [2]): 0
- Soybean plant response rating (soybean; [3]): 0
- Soybean plant response rating (soybean; [4]): 0
- Giant foxtail plant response rating (giant foxtail; [1]): 4
- Plant response rating, Giant foxtail (giant foxtail; [2]): 7
- Giant foxtail plant response rating (giant foxtail; [3]): 8
- Giant foxtail plant response rating (giant foxtail; [4]): 8
- Cocklebur plant response rating (cocklebur; [1]): 0
- Plant response rating, Cocklebur (cocklebur; [2]): 0
- Cocklebur plant response rating (cocklebur; [3]): 0
- Cocklebur plant response rating (cocklebur; [4]): 0
